Results as given in patent US7161032B2, “Sulfonamide derivatives, insecticides for agricultural and horticultural use, and usage thereof” (Nihon Nohyaku Co., Ltd., priority 2002, dated 2007).

Key:
Type in all cases: in vivo
[1] = test system: Common Cutworm (Spodoptera litura); experiment: Insecticidal effect on common cutworm (Test Example 2): cabbage leaf piece immersed in 50 ppm liquid chemical; details: common cutworm (Spodoptera litura) second-instar larvae, 8 days after inoculation, 25° C.
Outline: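 Cabbage leaf pieces (cv. Shikidori) dipped ~30 s in formulated compound at 50 ppm and air-dried. Second-instar larvae added, kept at 25° C. Dead and alive counted at 8 days to give % mortality, scored against a criterion scale; three groups of 10 insects.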

[2] = test system: Smaller Tea Tortrix (Adoxophyes sp.); experiment: Insecticidal effect on smaller tea tortrix (Test Example 3): tea leaves immersed in 50 ppm liquid chemical; details: smaller tea tortrix (Adoxophyes sp.) larvae, 8 days after inoculation, 25° C., humidity 70%
Outline: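 Tea leaves dipped about 30 seconds in 50 ppm compound preparation, air-dried, then infested with larvae and held at 25° C and 70% humidity. Dead and alive counted 8 days after inoculation; triplicate groups of 10 insects.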

[3] = test system: Diamond Back Moth (Plutella xylostella); experiment: Insecticidal effect on diamond back moth (Test Example 1): egg-bearing Chinese cabbage seedling immersed in 50 ppm liquid chemical
Outline: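 Seedlings bearing 2-day-old eggs dipped about 30 s in 50 ppm formulated compound, air-dried, held at 25° C. Hatched larvae counted 6 days after immersion; mortality calculated and graded by criterion. Triplicate groups of 10 insects.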

| SMILES | Insecticidal effect (mortality grade), Test Example 2 [1] | Insecticidal effect (mortality grade), Test Example 3 [2] | Insecticidal effect (mortality grade), Test Example 1 [3] |
| --- | --- | --- | --- |
| Cc1cc(C(F)(C(F)(F)F)C(F)(F)F)ccc1NC(=O)c1cccc(I)c1C(=O)NC(C)CS(=O)(=O)NCc1ccc(C#N)cc1 (stereo not drawn) [1-37] | A (Mortality 100%) | A (Mortality 100%) | A (Mortality 100%) |
| CNS(=O)(=O)CC(C)NC(=O)c1c(I)cccc1C(=O)Nc1ccc(C(F)(C(F)(F)F)C(F)(F)F)cc1C (stereo not drawn) [1-2] | A (Mortality 100%) | A (Mortality 100%) | A (Mortality 100%) |
| CSCC(C)(C)NS(=O)(=O)CC(C)NC(=O)c1c(I)cccc1C(=O)Nc1ccc(C(F)(C(F)(F)F)C(F)(F)F)cc1C (stereo not drawn) [1-94] | A (Mortality 100%) | A (Mortality 100%) | A (Mortality 100%) |
| Cc1cc(C(F)(C(F)(F)F)C(F)(F)F)ccc1NC(=O)c1cccc(I)c1C(=O)NC(C)CS(=O)(=O)NCCS(C)(=O)=O (stereo not drawn) [1-77] | A (Mortality 100%) | A (Mortality 100%) | A (Mortality 100%) |
| Cc1cc(C(F)(F)C(F)(F)F)ccc1NC(=O)c1cccc(I)c1C(=O)NC(C)(C)CS(=O)(=O)NCC[S+](C)[O-] (stereo not drawn) [1-305] | A (Mortality 100%) | A (Mortality 100%) | A (Mortality 100%) |
| CCNS(=O)(=O)CC(C)NC(=O)c1c(I)cccc1C(=O)Nc1ccc(C(F)(C(F)(F)F)C(F)(F)F)cc1C (stereo not drawn) [1-4, N^2-(2-ethylsulfamoyl-1-methylethyl)-3-iodo-N^1-{2-methyl-4-[1,2,2,2-tetrafluoro-1-(trifluoromethyl)ethyl]phenyl}phthalamide] | A (Mortality 100%) | A (Mortality 100%) | A (Mortality 100%) |
| CCN(CC)S(=O)(=O)CC(C)(C)NC(=O)c1c(I)cccc1C(=O)Nc1ccc(C(F)(C(F)(F)F)C(F)(F)F)cc1C [1-179] | A (Mortality 100%) | A (Mortality 100%) | A (Mortality 100%) |
| Cc1cc(C(F)(C(F)(F)F)C(F)(F)F)ccc1NC(=O)c1cccc(I)c1C(=O)NC(C)CS(=O)(=O)NC(C)C (stereo not drawn) [1-8] | A (Mortality 100%) | A (Mortality 100%) | A (Mortality 100%) |
| CNS(=O)(=O)CC(C)(C)NC(=O)c1c(I)cccc1C(=O)Nc1ccc(C(F)(C(F)(F)F)C(F)(F)F)cc1C [1-176] | A (Mortality 100%) | A (Mortality 100%) | A (Mortality 100%) |
| Cc1cc(C(F)(C(F)(F)F)C(F)(F)F)ccc1NC(=O)c1cccc(I)c1C(=O)NC(C)CS(=O)(=O)NC(C)(C)C (stereo not drawn) [1-14] | A (Mortality 100%) | A (Mortality 100%) | A (Mortality 100%) |
| CCN(CC)S(=O)(=O)CC(C)(C)NC(=O)c1c(I)cccc1C(=O)Nc1ccc(OC(F)(F)F)cc1C [1-277] | A (Mortality 100%) | A (Mortality 100%) | A (Mortality 100%) |
| CCCCNS(=O)(=O)CC(C)NC(=O)c1c(Br)cccc1C(=O)Nc1ccc(C(F)(C(F)(F)F)C(F)(F)F)cc1C (stereo not drawn) [1-217] | A (Mortality 100%) | A (Mortality 100%) | A (Mortality 100%) |
| Cc1cc(C(F)(C(F)(F)F)C(F)(F)F)ccc1NC(=O)c1cccc(I)c1C(=O)NC(C)CS(=O)(=O)N[C@H](C)c1ccccc1 (stereo partly drawn) [1-45] | A (Mortality 100%) | A (Mortality 100%) | A (Mortality 100%) |
| Cc1cc(C(F)(C(F)(F)F)C(F)(F)F)ccc1NC(=O)c1cccc(I)c1C(=O)NC(C)CS(=O)(=O)NCc1cccc([N+](=O)[O-])c1 (stereo not drawn) [1-30] | A (Mortality 100%) | A (Mortality 100%) | A (Mortality 100%) |
| Cc1cc(C(F)(C(F)(F)F)C(F)(F)F)ccc1NC(=O)c1cccc(I)c1C(=O)NC(C)CS(=O)(=O)N1CCS(=O)(=O)CC1 (stereo not drawn) [1-57] | A (Mortality 100%) | A (Mortality 100%) | A (Mortality 100%) |
| Cc1cc(C(F)(C(F)(F)F)C(F)(F)F)ccc1NC(=O)c1cccc(I)c1C(=O)NC(C)(C)CS(=O)(=O)N1CC[S+]([O-])CC1 [1-59] | A (Mortality 100%) | E (Mortality less than 50%) | A (Mortality 100%) |
| CCNC(=O)C(C)NS(=O)(=O)CC(C)NC(=O)c1c(I)cccc1C(=O)Nc1ccc(C(F)(C(F)(F)F)C(F)(F)F)cc1C (stereo not drawn) [1-104] | A (Mortality 100%) | A (Mortality 100%) | A (Mortality 100%) |
| CCN(CC)S(=O)(=O)CC(C)NC(=O)c1c(I)cccc1C(=O)Nc1ccc(C(F)(C(F)(F)F)C(F)(F)F)cc1C (stereo not drawn) [1-6] | A (Mortality 100%) | A (Mortality 100%) | A (Mortality 100%) |
